Test results from patent EP1228058B1, “BENZOPYRANYL GUANIDINE DERIVATIVES, PROCESS FOR PREPARATION THEREOF, AND PHARMACEUTICAL COMPOSITIONS CONTAINING THEM” (Dongbu Hannong Chemical Co., Ltd., priority 1999, dated 2001).

How the values were obtained:
[1] = ORAC (oxygen-radical absorbance capacity) assay; assay type: biochemical; details: 1 ORAC unit = net protection by 1 uM Trolox
Procedure: The method utilized β-PE (β-phycoerythrin) as an indicator protein, and AAPH (2,2'-azobis(2-amidinopropane) dihydrochloride) as a peroxy radical generator. Reaction mixtures consisted of test compounds (10^-6M and 10^-4M), β-PE (1.76 x 10^-8M), and AAPH (3 x 10^-3 M) in 75 mM phosphate buffer (pH 7.0). A final volume of 2 ml was used in 24 well plates. Test compounds were first dissolved in acetone and then added to the reaction mixture. Once AAPH was added, the reaction was initiated at 37 °C and the fluorescence (485 nm excitation, 590 nm emission) was measured every 5 min using Fluorescence reader (FL600, Biotek Instrument). The ORAC units were calculated based on the area under the fluorescence curve of β-PE in the presence of the test compound compared to the area generated by 1 uM Trolox. 1 ORAC unit represents the net protection provided by 1 uM Trolox.

A7r5 = assay: Inhibition of A7r5 mediated LDL oxidation (MDA); assay type: cell-based, rat; details: for % Inhibition LDL + H2O2 (10^-7M): A7r5 plus H2O2 (10^-7 M); for % Inhibition LDL: A7r5 alone, LDL 100 ug/ml, 24 hr
Procedure: A7r5 (ATCC CRL-1444, smooth muscles, thoracic aorta, BDIX rat) cells were cultured in 24 well plates, using the medium of DMEM (Dulbecco's modified Eagle's Medium) supplemented with 10% heat-inactivated FBS (fetal bovine serum) and 1% antibiotics. Confluent A7r5 from plates were washed with phosphate-buffered solution, and DMEM with 10% FBS and 1% antibiotics was added in a total volume of 0.5 ml/well. Cells (2 x 10^5 cells/ml) were preincubated without and with either test compounds (10^-6 - 10^-4 M) or Tocopherol (10^-6 - 10^-4 M) at 37 °C for 30 min. Then, A7r5 alone or A7r5 plus H2O2 (10^-7 M) were exposed to LDL (100 ug/ml) for 24 hr.
The inhibitory effect of the test compounds against the lipid peroxidation was evaluated by calculating MDA reduction rate of the test compounds compared with that of the control group same as the above example 5 (2).

HUVEC = assay: Inhibition of intracellular ROS induced by H2O2 (H2DCFDA) in HUVEC; assay type: cell-based, Human
Procedure: Measurement of intracellular ROS (Reactive Oxygen Species) was determined using H2DCFDA (2',7'-dichlorodihydrofluorescein diacetate, Molecular Probes, Eugene, OR, USA). H2DCFDA is a non-polar compound that readily diffused into cells, where it is hydrolyzed by intracellular esterase to polar derivative H2DCF (2',7'-dichlorodihydrofluorescein) which can not cross the cell membrane, and thereby trapped within the cell. H2DCF is low-fluorescent, but converted to high-fluorescent DCF (2',7'-dichlorofluorescein) by intracellular ROS. Therefore, the intracellular ROS formation can be determined from the amount of converted DCF. HUVEC (Human umbilical Vascular Endothelial Cells) or A7r5 (Rat thoracic aorta smooth muscle cells) were used. HUVEC were cultured in Kaighn's F12K medium supplemented with 10% heat-inactivated FBS, 0.1 mg/ml heparin sodium, 0.03-0.05 mg/ml ECGS (Endothelial cell growth supplement) and 1% antibiotics, and A7r5 were cultured in DMEM supplemented with 10% heat inactivated FBS and 1% antibiotics. To measure the intracellular ROS, HUVEC or A7r5 were preincubated for 30 min in the presence of test compounds (10^-7-10^-5 M). Thereafter, cells were stimulated with H2O2 (10^-6 and 10^-5 M for 20 min), and then incubated in the dark for 2 hr at 37 °C in 50 mM phosphate buffer (pH 7.4) containing 5 uM H2DCFDA. The quantity of DCF fluorescence (485 nm excitation, 530 nm emission) was measured using Fluorescence plate reader (FL600, Biotek Instruments).

Human LDL = assay: Inhibition of copper-induced LDL oxidation (MDA, TBA method); assay type: biochemical; details: CuSO4 10 uM, 18 hr
Procedure: Human LDL (sigma) was dissolved in distilled water at a concentration of 1 mg/ml. LDL was dialyzed against three changes of phosphate-buffered solution before oxidation to remove EDTA (ethylenediamine tetraacetate) at 4 °C for 18 hr. EDTA-free LDL (100 ug LDL protein/ml) was incubated in EDTA-free phosphate-buffered solution at 37 °C for 18 hr in the presence of CuSO4 (10 uM) under pretreatment with the test compounds or tochopherol of which final concentrations were 10^-9, 10^-7, and 10^-5 M. Blank was incubated without CuSO^., and vehicle was used as a solvent group. Oxidation was stopped at 4 °C by addition of EDTA (200 uM).
Copper (Cu^+2) facilitates the oxidation of LDL to produce malondialdehyde (MDA), thus the lipid peroxidation was determined by MDA quantification same as the above example 5 (1). The MDA quantification was estimated by reacting samples with 2-thiobarbituric acid (TBA) and measuring the absorbance at 530 nm. 1,1,3,3-Tetramethoxy propane (Sigma) was used as a standard agent, and calculated the quantity of MDA as nmol of MDA equivalents per mg protein. The inhibitory effect of the test compounds against the lipid peroxidation was evaluated by calculating MDA reduction rate of the test compounds compared with that of the control group.

diabetic rats [2] = assay: Effects on MNCV (motor nerve conduction velocity) in diabetic rats; assay type: in vivo; details: MNCV; 100 mg/Kg, orally once a day, diabetic rats
Procedure: Diabetes was induced with i.p. (intra peritoneum) injection of streptozocin (65 mg/Kg) in rats, then test compounds dissolved in 2 ml of media (physiological saline: ethanol: tween 80 = 8:1:1), were orally administered once a day. Rats were anesthetized with halothane, then the sciatic nerve was exposed to measure MNCV. The nerve was stimulated at two points. The first stimulus electrode was inserted at proximal end, and second stimulating electrode was inserted at the sciatic notch. The coaxial needle electrode was inserted into interdigital muscle, then the muscle action potential induced by two point stimulation. The conduction velocity was calculated by dividing the distance between two stimulus points by the latency difference. Lipoic acid (100 mg/Kg) was used in comparison with the compound of formula 1 in recovery of impaired MNCV in diabetic rats. The recovery (%) of MNCV was calculated according to the following mathematical formula 4. [Mathematical formula 4] Recovery(%) =(MNCV of treated group - MNCV of diabetic rats)/(MNCV of normal control-MNCV of diabetic rats)x100 [formula]

diabetic rats [3] = assay: Nociceptive test (hot plate test) in diabetic rats; assay type: in vivo; details: 50 °C hot plate
Procedure: Effects on nociceptive responses of test compounds in rats were examined using hot plate. The same methods were applied for the induction of diabetes and treatment of test compound in rats. Rats were placed onto 50 °C hot plate, then latencies of nociceptive action such as licking were determined. The recovery (%) of nociceptive responses in diabetic rats was calculated according to the following mathematical […]. [Mathematical formula 5] Recovery(%) =(Response in treated group - Response in diabetic control)/(Response in normal control-Response in diabetic control)x100 [formula]

Q: For Tocopherol [reference compound], which ORAC units ([1]; Conc. 10^-4 M) is on record?
A: 1.568 ORAC units

Q: What about the ORAC units ([1]; Conc. 10^-6 M) of the same compound?
A: 1.0 ORAC units

Q: What about the “% Inhibition LDL + H2O2 (10^-7M)” value (A7r5; 10^-4 M) of the same compound?
A: 63.9%

Q: What about the “% Inhibition LDL” value (A7r5; 10^-5 M) of the same compound?
A: 57.0%

Q: And the “% Inhibition LDL + H2O2 (10^-7M)” value (A7r5; 10^-5 M)?
A: 53.0%

Q: And the “% Inhibition LDL” value (A7r5; 10^-6 M)?
A: 41.1%

Q: What about the “% Inhibition LDL + H2O2 (10^-7M)” value (A7r5; 10^-6 M) of the same compound?
A: 43.2%

Q: What about the “Inhibition (%) H2O2 (10^-5M)” value (HUVEC; Conc. 10^-5 M) of the same compound?
A: 51.0%

Q: What about the “Inhibition (%) H2O2 (10^-6M)” value (HUVEC; Conc. 10^-5 M) of the same compound?
A: 60.8%

Q: And the “Inhibition (%) H2O2 (10^-5M)” value (HUVEC; Conc. 10^-6 M)?
A: 30.7%

Q: What about the “Inhibition (%) H2O2 (10^-6M)” value (HUVEC; Conc. 10^-6 M) of the same compound?
A: 43.2%

Q: And the “Inhibition (%) H2O2 (10^-5M)” value (HUVEC; Conc. 10^-7 M)?
A: 8.8%

Q: And the “Inhibition (%) H2O2 (10^-6M)” value (HUVEC; Conc. 10^-7 M)?
A: 13.8%

Q: And the “% Inhibition” value (Human LDL; 10^-5 M)?
A: 29.7%

Q: And the “% Inhibition” value (Human LDL; 10^-7 M, 0.1 µM)?
A: 21.3%

Q: What about the “% Inhibition” value (Human LDL; 10^-9 M, 0.001 µM) of the same compound?
A: 18.5%

Q: What does the source list for O=C(O)CCCCC1CCSS1 (stereo not shown) [Lipoic acid, reference compound]?
A: Recovery (%) (diabetic rats [2]): 136.6%; Nociceptive response (diabetic rats [3]; latency of licking): 4.371 s; Recovery (%) (diabetic rats [3]; nociceptive responses): 60.2%
